Reference: patent publication US10695279B2, “Peptide having skin-whitening activity and use thereof” (CAREGEN CO., LTD., priority 2017, dated 2020)

Legend:
[1] = system: human keratinocyte line (HaCaT); conditions: melanosomes pretreated 48 hours, peptide 100, 200 uM, dose-dependent, FIG. 13
Protocol: After human keratinocyte line (HaCaT) was cultured in 6-well culture plates for 24 hours, melanosomes isolated from mouse melanoma cell line (B16F10) were pretreated for 48 hours in serum-free culture medium. The plates were washed with PBS to remove un-transferred melanosomes, and then the cells were treated with the peptide at different concentrations (100, 200 uM) or arbutin (200 uM) as a positive control, and TGFβ-1, followed by incubation for 48 hours. In order to measure the degradation of melanosomes phagocytized into keratinocytes, 1 M NaOH was added to pellets obtained by keratinocyte collection and precipitation, and the pellets were dissolved in an oven at 80° C., and then the OD value at 490 nm was measured.

MITF [2] = conditions: B16F10, α-MSH (200 ng/ml), peptide 50, 100 uM, 72 hours, western blot; FIG. 7
Protocol: (§1) After melanin-forming cells (B16F10 cell line) were incubated in 6-well culture plates for 24 hours, the cells were treated with α-MSH (200 ng/ml) or the present peptide at different concentrations (50, 100 uM).

CREB = conditions: B16F10, α-MSH (200 ng/ml), peptide 50, 100 uM, 10 minutes, western blot; FIG. 8
Protocol: as §1

tyrosinase [3] = test: Measurement of tyrosinase expression level (fluorescence microscope, tyrosinase antibody); format: cell-based, mouse; conditions: B16F10, α-MSH (200 ng/ml), peptide 50, 100 uM, 48 hours; dose-dependent; FIG. 5
Protocol: Then, the cells were incubated for 48 hours, and the intracellular expression protein was stained with FITC-conjugated tyrosinase antibody (Santa Cruz biotechnology, USA) and FITC-conjugated secondary IgG antibody (Santa Cruz biotechnology, USA).

C57BL/6 mice = test: In vivo whitening effect, application to the tail; conditions: C57BL/6 mice tail skin, liposomal peptide 5,000 ppm once a day, about 8 weeks, F&M staining, versus control group; FIGS. 14b and 14c
Protocol: Liposomal peptide (5,000 ppm) or arbutin as a positive control was applied to the tail of 8-week-old C57BL/6 mice once a day, and the experiment was conducted for about 8 weeks. After the completion of the experiment, the mice were sacrificed to extract tail skin tissues, which were then embedded in paraffin to manufacture paraffin blocks. Then, the paraffin blocks were made into paraffin sections and morphologically observed through Fontana-Masson staining.

[4] = system: melanin-forming cells (B16F10 cell line); conditions: B16F10, α-MSH (200 ng/ml), peptide 50, 100, 200 uM, 72 hours; dose-dependent, **P≤0.01; FIGS. 2a and 2b
Protocol: After melanin-forming cells (B16F10 cell line) dispensed in 6-well culture plates were incubated in a 37° C. incubator for 24 hours, the medium for each plate was removed and then replaced with new medium (2% serum medium). Then, the cells were treated with α-MSH (200 ng/ml), arbutin (200, 500 uM), or the peptide of the present invention at different concentrations (50, 100, 200 uM). Thereafter, the cells were incubated for 72 hours, and then the culture medium was removed. The cells were detached and then transferred into a 1.5 ml tube, followed by centrifugation at 13,000 rpm for 3 minutes. The supernatant was removed, and cell pellets were collected to observe melanin. Then, 150 μl of 2 M NaOH was added to the cell pellets to lyse intracellular melanin at 60° C. for 30 minutes. Then, 100 μl of the supernatant obtained from the lysis was added into each well of a 96-well plate, and the absorbance at 490 nm was measured.

[5] = system: melanin-forming cells (B16F10 cell line); conditions: B16F10, α-MSH (200 ng/ml), peptide 50, 100, 200 uM, 72 hours; dose-dependent; FIG. 3
Protocol: After melanin-forming cells (B16F10 cell line) dispensed in 6-well culture plates were incubated in a 37° C. incubator for 24 hours, the medium for each plate was removed and replaced with new medium (10% serum medium). Then, the cells were treated with α-MSH (200 ng/ml), arbutin (500 uM), or the peptide of the present invention at different concentrations (50, 100, 200 uM). The cells were incubated for 72 hours, and then the formed melanin was observed through an optical microscope.

PAR2 = conditions: HaCaT, trypsin-induced, peptide 100, 200 uM, 16 hours, PCR; FIG. 9
Protocol: After a human keratinocyte line (HaCaT) was incubated in 6-well culture plates for 24 hours, the cells were treated with trypsin as an activity-inducing material and the present peptide at different concentrations (100, 200 uM). After RNA was extracted from the cells incubated for 16 hours, cDNA was prepared.
PCR was conducted using a primer pair (see table 3 below) specific to PAR2, which is one of surface receptors of keratocytes activated by a trypsin action, and then the change in the expression of each gene was observed.

tyrosinase [6] = test: Gene expression of melanin-forming factors (PCR): tyrosinase; format: cell-based, mouse; conditions: B16F10, α-MSH (200 ng/ml), peptide 100, 200 uM, 24 hours, FIG. 6
tyrosinase [7] = biological target: T1, tyrosinase (Mus musculus, UniProt P11344); test: Measurement of tyrosinase activity in cells (L-dopa, absorbance at 475 nm); format: cell-based; conditions: B16F10, α-MSH (200 ng/ml), peptide 50, 100, 200 uM, 72 hours; dose-dependent, **P≤0.01; FIG. 4
T1 construct: endogenous in cells; host or cells: B16F10 mouse melanoma cells
T1 sequence (P11344 19-533): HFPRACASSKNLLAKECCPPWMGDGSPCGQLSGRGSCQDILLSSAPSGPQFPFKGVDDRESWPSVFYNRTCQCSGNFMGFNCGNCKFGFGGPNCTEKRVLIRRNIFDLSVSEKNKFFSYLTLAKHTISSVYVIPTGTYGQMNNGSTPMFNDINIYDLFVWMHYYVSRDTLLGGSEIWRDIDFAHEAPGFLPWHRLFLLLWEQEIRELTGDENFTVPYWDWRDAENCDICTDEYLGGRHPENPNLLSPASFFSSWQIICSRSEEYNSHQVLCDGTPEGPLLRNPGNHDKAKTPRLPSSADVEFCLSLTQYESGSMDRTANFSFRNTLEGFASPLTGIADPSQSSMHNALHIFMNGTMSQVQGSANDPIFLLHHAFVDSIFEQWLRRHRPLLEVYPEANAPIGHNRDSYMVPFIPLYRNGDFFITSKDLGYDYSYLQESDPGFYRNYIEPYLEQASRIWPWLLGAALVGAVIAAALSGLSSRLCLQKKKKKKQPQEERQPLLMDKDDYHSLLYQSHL
Protocol: The 6-well culture plates were loaded on ice and washed with cool PBS, and then 300 μl of 0.1 M sodium phosphate buffer (pH 6.8 lysis buffer) containing 1% Triton X-100 was added. The cells were collected in a 1.5 mL tube, and then cell membranes were disrupted by repeating rapid-freezing at […] and thawing, five times. Then, the tube was centrifuged at 13,000 rpm for 20 minutes, and then the supernatant was collected in another 1.5 mL tube, and the protein content of the samples was quantified. The samples were diluted to have the same protein concentration and then dispensed in three wells each in a 96-well culture plate, and then 20 μl of 10 mM L-dopa was added, followed by incubation at 37° C. for 1 hour.

[8] = system: human keratinocyte line (HaCaT); conditions: melanosomes isolated from B16F10, peptide 10, 50, 100, 200 uM, 48 hours, Fontana-Masson staining, dose-dependent, FIG. 11
Protocol: After human keratinocyte line (HaCaT) was cultured in 6-well culture plates for 24 hours, the melanosomes isolated from mouse melanoma cell line (B16F10) were pretreated for 3 hours in serum-free culture medium. Then, the cells were treated with the present peptide at different concentrations (10, 50, 100, 200 uM) or arbutin (200 uM) as a positive control, followed by incubation for 48 hours. Then, the plates were washed with PBS to remove un-transferred melanosomes, and subjected to Fontana-Masson staining to observe the inhibition of the melanosome phagocytosis by keratinocytes through a microscope.

[9] = system: human keratinocyte line (HaCaT); conditions: melanosomes isolated from B16F10, peptide 10, 50, 100, 200 uM, 48 hours, FIG. 10
Protocol: After human keratinocyte line (HaCaT) was cultured in 6-well culture plates for 24 hours, the melanosomes isolated from mouse melanoma cell line (B16F10) were pretreated for 3 hours in serum-free culture medium, and then the cells were treated with the present peptide at different concentrations (10, 50, 100, 200 uM) or arbutin (200 uM) as a positive control, followed by incubation for 48 hours. Then, the plates were washed with PBS to remove un-transferred melanosomes, and 1 N NaOH was added to pellets, which had been obtained through cell collection and precipitation. Then, 1 M NaOH was added to the pellets, and the pellets were dissolved in an oven at 80° C., and then the OD value at 490 nm was measured.

tyrosinase [10] = test: Protein expression of melanin-forming factors (western blot): tyrosinase; format: cell-based, mouse; conditions: B16F10, α-MSH (200 ng/ml), peptide 50, 100 uM, 72 hours, FIG. 7
MITF [11] = conditions: B16F10, α-MSH (200 ng/ml), peptide 100, 200 uM, 24 hours, PCR; FIG. 6
Protocol: (§2) After melanin-forming cells (B16F10 cell line) were incubated in 6-well culture plates for 24 hours, the cells were treated with α-MSH (200 ng/ml), arbutin (500 uM), or the present peptide at different concentrations (100, 200 uM). After RNA was extracted from the cells incubated for 24 hours, cDNA was prepared. Then, PCR was conducted using the primers shown in Table 2 below, which are specific to MITF, tyrosinase, and TRP1, respectively, as melanogenesis-involved factors, and then the change in the expression of each gene was observed.

TRP1 = conditions: B16F10, α-MSH (200 ng/ml), peptide 100, 200 uM, 24 hours, PCR; FIG. 6
Protocol: as §2

[12] = system: human keratinocyte line (HaCaT); conditions: peptide 100, 200 uM, 24 hours, Vybrant Phagocytosis Assay Kit, FIG. 12
Protocol: After human keratinocyte line (HaCaT) was cultured in 24-well culture plates for 24 hours, the cells were treated with the present peptide at different concentrations (100, 200 uM) or arbutin (200 uM) as a positive control in 0.5% FBS culture medium, followed by incubation for 24 hours. Thereafter, the inhibition of phagocytosis of the human keratinocyte line was observed using the Vybrant Phagocytosis Assay Kit (V-6694).

In the case of “Feruloyl-Ile-Trp-Ser-Leu-Asp-Thr-Gln-Tyr-Gly-Gly-Arg-Gly-Asp-COOH”, the “degradation of melanosomes transferred into keratinocytes” value [1] is reported as “promote the degradation of the melanosomes transferred into the keratinocytes”, the MITF protein expression (MITF [2]) is reported as “MITF and tyrosinase protein expression inhibitory effects” and the “degree of phosphorylation of CREB” value (CREB) is reported as “CREB phosphorylation inhibitory effect”. The tyrosinase expression level (tyrosinase [3]) was “tyrosinase expression inhibitory effect”, the “amount of melanin distributed in the basal layer of the epidermis” value (C57BL/6 mice) was “significantly smaller than that in the control group” and the melanin production [4] was “melanogenesis inhibitory effect”. For the same substance, the “melanin formation observed through cell morphology” value [5] was “melanogenesis inhibitory effect”, the PAR2 gene expression (PAR2) was “reduced the expression of PAR2 gene in a dose-dependent manner” and the tyrosinase gene expression (tyrosinase [6]) was “strong effects of inhibiting MITF, tyrosinase, and TRP1 genes”. For the same substance, the “tyrosinase activity in cells” value (tyrosinase [7]) was “tyrosinase activity inhibitory effect”, the “amount of melanosomes transferred into keratinocytes (optical microscope image analysis)” value [8] was “phagocytosis inhibitory effect” and the “amount of melanosomes transferred into keratinocytes (absorbance)” value [9] was “phagocytosis inhibitory effect”. For the same substance, the tyrosinase protein expression (tyrosinase [10]) was “MITF and tyrosinase protein expression inhibitory effects”, the MITF gene expression (MITF [11]) was “strong effects of inhibiting MITF, tyrosinase, and TRP1 genes” and the TRP1 gene expression (TRP1) was “strong effects of inhibiting MITF, tyrosinase, and TRP1 genes”. For the same substance, the “amount of bioparticles transferred into keratinocytes (fluorescent microscopic image analysis)” value [12] was “distinctive phagocytosis inhibitory effect”.
